Data published in ChEMBL document CHEMBL5543130, “Design, Synthesis, and In Vivo Evaluation of Isosteviol Derivatives as New SIRT3 Activators with Highly Potent Cardioprotective Effects” (J Med Chem, 2024).
Converted amounts (≈) assume the structure as drawn. The source made the active and inactive calls. The calls are words filed in the database; no cut-off is given here.

Experiments:
Danio rerio [1] = assay: Cardioprotective activity against doxorubicin-induced Zebrafish cardiomyopathy model assessed as survival rate at 5 uM fertilized for 24 hrs followed by compound administration for 72 hrs and measured at 96 hrs post fertilization by inverted fluorescence microscopic analysis; type: functional
Danio rerio [2] = species: Danio rerio; assay: Cardioprotective activity against doxorubicin-induced Tg(cmlc2: GFP) Zebrafish assessed as reduction in Bnp mRNA level measured at 72 hrs post fertilization by qPCR analysis; type: functional, organism-based
Danio rerio [3] = assay: Cardioprotective activity against doxorubicin-induced Tg(cmlc2: GFP) Zebrafish assessed as […] at 5 uM measured at 72 hrs post fertilization; type: functional, organism-based
Danio rerio [4] = species: Danio rerio; assay: Cardioprotective activity against doxorubicin-induced Tg(cmlc2: GFP) Zebrafish assessed as reduction in cTnT mRNA level measured at 72 hrs post fertilization by qPCR analysis; type: functional, organism-based; details: dose <= 5.0 µM
[5] = Toxicity in zebrafish embryos assessed as survival at upto 40 uM fertilized for 24 hrs followed by compound administration for 72 hrs and measured at 96 hrs post fertilization; parameters: species or system Danio rerio; details: in vivo
Danio rerio [6] = species: Danio rerio; assay: Cardioprotective activity against doxorubicin-induced Tg(cmlc2: GFP) Zebrafish assessed as restoration of normal heart structure at 5 uM measured at 72 hrs post fertilization; type: functional, organism-based
Danio rerio [7] = species: Danio rerio; assay: Cardioprotective activity against doxorubicin-induced Tg(cmlc2: GFP) Zebrafish assessed as reduction in Anp mRNA level measured at 72 hrs post fertilization by qPCR analysis; type: functional, organism-based; details: dose <= 5.0 µM
[8] = Water solubility of the compound measured for 24 hrs by HPLC analysis; type: physicochemical
Danio rerio [9] = assay: Cardioprotective activity against doxorubicin-induced Zebrafish cardiomyopathy model assessed as survival rate at 5 to 15 uM fertilized for 24 hrs followed by compound administration for 72 hrs and measured at 96 hrs post fertilization by inverted fluorescence microscopic analysis; type: functional; details: dose 5-15 µM
Danio rerio [10] = assay: Cardioprotective activity against doxorubicin-induced Zebrafish cardiomyopathy model at 5 to 15 uM fertilized for 24 hrs followed by compound administration for 72 hrs and measured at 96 hrs post fertilization by inverted fluorescence microscopic analysis; type: functional, organism-based; details: dose 5-15 µM
Danio rerio [11] = assay: Cardioprotective activity against doxorubicin-induced Zebrafish cardiomyopathy model assessed as survival rate at 15 uM fertilized for 24 hrs followed by compound administration for 72 hrs and measured at 96 hrs post fertilization by inverted fluorescence microscopic analysis; type: functional
Danio rerio [12] = assay: Cardioprotective activity against doxorubicin-induced Zebrafish cardiomyopathy model assessed as survival rate at 10 uM fertilized for 24 hrs followed by compound administration for 72 hrs and measured at 96 hrs post fertilization by inverted fluorescence microscopic analysis; type: functional
Danio rerio [13] = species: Danio rerio; assay: Cardioprotective activity against doxorubicin-induced Tg(cmlc2: GFP) Zebrafish assessed as restoration of normal heart structure at 10 uM measured at 72 hrs post fertilization; type: functional, organism-based
Danio rerio [14] = assay: Cardioprotective activity against doxorubicin-induced Tg(cmlc2: GFP) Zebrafish assessed as […] at 10 uM measured at 72 hrs post fertilization; type: functional, organism-based

## C[C@@]12CC[C@@H]3[C@@](CC[C@H]4[C@@]3(C)CCC[C@@]4(C)C(=O)N3CCN(C(=O)C4=C(C(=O)O)CCCC4)CC3)(CC1=O)C2
Danio rerio [1]
  Activity: 85%
Danio rerio [2]
  Activity: Dose-Dependent Effect
Danio rerio [3]
  Activity: Active
Danio rerio [4]
  Activity: Dose-Dependent Effect
[5]
  Activity: Non-Toxic
Danio rerio [6]
  Activity: Active
Danio rerio [7]
  Activity: Dose-Dependent Effect

## C[C@@]12CC[C@@H]3[C@@](CC[C@H]4[C@@]3(C)CCC[C@@]4(C)C(=O)N3CCN(C(=O)c4ccccc4C(=O)O)CC3)(CC1=O)C2
Danio rerio [1]; Danio rerio
  survival at 5 µM: 50%
[8]
  solubility at 24 h: 940 µg/mL (≈ 1760 µM)
[5]
  Activity: Non-Toxic
Danio rerio [9]
  Survival: 50%

## C[C@@]12CC[C@@H]3[C@@](CC[C@H]4[C@@]3(C)CCC[C@@]4(C)C(=O)N3CCN(C(=O)/C=C/C(=O)O)CC3)(CC1=O)C2
Danio rerio [10]
  Activity: Active
Danio rerio [11]
  survival at 15 µM: 50%

## C[C@@]12CC[C@@H]3[C@@](CC[C@H]4[C@@]3(C)CCC[C@@]4(C)C(=O)O)(CC1=O)C2 [ISOSTEVIOL]
Danio rerio [12]
  survival at 10 µM: 43%
Danio rerio [13]
  Activity: Active
[5]
  Activity: Non-Toxic
Danio rerio [10]
  Activity: Active
Danio rerio [14]
  Activity: Active
